{"source": "patent US20250325524A1", "about": "“COMPOSITIONS AND METHODS FOR TREATING RENAL INJURY” (CASE WESTERN RESERVE UNIVERSITY, priority 2018, published 2025)", "key": {"[1]": {"experiment": "chemical stability in aqueous solutions", "type": "physicochemical", "details": "over broad pH range"}, "[2]": {"tested_on": "mice", "experiment": "toxicity after IP injection into mice"}, "[3]": {"tested_on": "mice with ischemic AKI", "experiment": "renal ischemia-reperfusion injury model: renal function (serum creatinine, NGAL, KIM-1)", "type": "in vivo", "details": "IRI-30 min, 24 hours reperfusion", "description": "(§1) Mice were anesthetized with isoflurane using a vaporizer and placed on a heating pad to maintain their body temperature at 37° C. Both renal arteries were identified through dorsal incisions and clamped for 20, 30, 35, or 37 minutes. Reperfusion was confirmed visually upon release of the clamps. Surgical wounds were closed, and mice were administered 1 mL of saline i.p. The mice were kept in a warm incubator until they regained consciousness and were allowed to recover with ad libitum access to food and water. […] Serum and kidney tissue were collected 24 hours after renal IRI.\nRenal function was assessed by determining the serum levels of creatinine (KB02-H1; Arbor Assays), Lipocalin-2 (NGAL; MLCN20; R&D Systems), and kidney injury molecule-1 (KIM-1; MKM100; R&D Systems) after reperfusion for 24 h."}, "[4]": {"tested_on": "PGE2 production by cell lines", "experiment": "PGE2 production by cell lines", "type": "cell-based"}, "[5]": {"tested_on": "renal arterioles in the outer medulla", "experiment": "renal vasodilatation in the outer medulla (α-SMA-positive arteriole area)", "type": "in vivo, mice", "details": "α-SMA staining", "description": "as §1\nTo quantify vasodilation, the inner arteriole area of the outer medulla was determined using α-SMA-stained sections. After counterstaining with Mayer's hematoxylin, the inner area of α-SMA-positive vessels in the outer medulla (×25) was measured using ImageJ. The results are expressed as average areas of renal arteries outer medulla."}, "[6]": {"tested_on": "endogenous PGE2 levels in kidney tissue", "experiment": "endogenous PGE2 levels in kidney tissue after i.p. injection", "type": "in vivo", "details": "mice", "description": "[…] Next, the kidney tissues (˜20 mg) were homogenized in 500 μL of cold PBS containing indomethacin (10 μg/mL) using a tissue homogenizer. The suspension was sonicated in an ice-water bath for 1 minute using cycles of 10 seconds of sonication with 10 seconds of cooling, and they were then centrifuged for 10 minutes at 12,000 rpm. The supernatant was collected for PGE2 assay. Protein concentrations were determined by BCA assay (23225; Thermo Scientific). The PGE2 level in the supernatant was measured using a PGE2 ELISA Kit (SKGE004B; R&D Systems) in triplicate. PGE2 levels were expressed as ng PGE2/mg protein."}, "[7]": {"experiment": "stability on incubation with hepatocyte cell lines", "type": "in vitro ADME"}, "[8]": {"details": "5 mg/kg 1 hour before, immediately after, and 12 hours after IRI, vs IRI-vehicle"}}, "data": [{"molecule": "CCCC[S+]([O-])c1sc2nc(-c3cccs3)cc(-c3ccccc3)c2c1N", "note": "(centres unmarked) [SW033291]", "values": [{"measurement": "chemical stability in aqueous solutions", "setting": "[1]", "value": "chemically stable"}, {"measurement": "toxicity", "setting": "[2]; IP into mice at 0.3 μmole/per mouse twice daily for 21 days", "value": "no toxicity"}, {"measurement": "immediate toxicity over 24 hours", "setting": "[2]; IP into mice at 0.6 μmole/per mouse", "value": "no immediate toxicity"}, {"measurement": "immediate toxicity over 24 hours", "setting": "[2]; IP into mice at 1.2 μmole/per mouse", "value": "no immediate toxicity"}, {"measurement": "serum KIM-1", "setting": "[3]; [8]", "value": "significantly reducing"}, {"measurement": "serum NGAL", "setting": "[3]; [8]", "value": "significantly reducing"}, {"measurement": "serum creatinine", "setting": "[3]; [8]", "value": "significantly reducing"}, {"measurement": "renal protection from IRI (serum NGAL, creatinine, KIM-1)", "setting": "[3]; 3 doses of 5 mg/kg", "value": "markedly protected kidney from IRI"}, {"measurement": "PGE2 production by cell lines", "setting": "[4]", "value": "increase PGE2 production by cell lines"}, {"measurement": "renal arteriole area in the outer medulla", "setting": "[5]; IRI mice", "value": "significantly increased"}, {"measurement": "renal arteriole area in the outer medulla", "setting": "[5]; normal mice", "value": "increased"}, {"measurement": "level of PGE2 in kidney tissue, time course", "setting": "[6]; 5 mg/kg i.p., 1 and 3 hours", "value": "peaked at 1 hour at nearly twice as high as at baseline"}, {"measurement": "endogenous PGE2 levels in kidney tissue", "setting": "[6]; 3 hours after i.p. 2.5 or 5 mg/kg, vs vehicle", "value": "in dose-dependent fashion, upregulated"}, {"measurement": "chemical stability when incubated with hepatocyte cell lines", "setting": "[7]", "value": "chemically stable"}]}]}
